The values below come from EP4800018A1, “PAN-KRAS INHIBITOR AND USE THEREOF IN MEDICINES” (Betta Pharmaceuticals Co., Ltd., priority 2023, dated 2025).

As usually defined, the clearance is a measure of how efficiently the substance is removed, as volume per time. A low value points to inefficient removal. What is called half-life is the time in which the quantity being followed falls by half. The low end stands for rapid decline, the high end for slow decline. Broadly, the Tmax is the time at which the peak concentration occurs.

Data set [1] can be described thus: PK Study of Compounds in Mice. It counts as in vivo, Female ICR mice. To be noted: mean; for Cmax: read-out: C0/Cmax. On the procedure:
(§1) The test compound was mixed with the vehicle (10% DMSO/5% Solutol/85% physiological saline), vortexed and sonicated to prepare a clear 0.2 mg/mL intravenous injection solution. The test compound was mixed with the vehicle (20% PEG400/10% Solutol/70% pH 4.5 acetate buffer), vortexed and sonicated to prepare a clear 1 mg/mL oral solution. Female ICR mice aged 6 to 7 weeks were selected and administered the test compound via intravenous (IV) and oral (PO) routes, respectively. Whole blood samples were collected at 5 min, 15 min, 30 min, 1 h, 2 h, 4 h, 7 h, and 24 h for the intravenous route, and at 15 min, 30 min, 1 h, 2 h, 4 h, 7 h, and 24 h for the oral route. Drug concentrations were analyzed by LC-MS/MS method, and pharmacokinetic parameters were calculated using Phoenix WinNonlin software (Pharsight, USA).

The subject of data set [2] is KRAS-G12D mutant tumor cells AGS. Kind of data set: Cell Proliferation Inhibition Assay (AGS), Cell-titer GLO, 96 h. Conditions: Homo sapiens, AGS, 96 h, AGS cells, 96 h incubation, Cell-titer GLO; read-out: AGS(G12D). It counts as cell-based. In outline:
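AGS cells (KRAS-G12D) grown in low-attachment plates were exposed to compound for 96 h at 37°C. Viability was read by CellTiter-Glo luminescence and converted to % inhibition against max and blank wells. IC50 came from curve fitting.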

In data set [3] the target is T1, KRAS G12D-cRAF (Homo sapiens, UniProt P01116, G12D).
T1 construct: expressed in transfected cells
Kind of data set: Cellular KRAS G12D-cRAF Binding Inhibition Assay (NanoBRET, AD293 stable cells). It counts as cell-based. Conditions: 3 h incubation, read-out: NanoBRET KRAS G12D. An outline of the steps:
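AD293 cells stably expressing KRAS G12D-NanoLuc and cRAF RBD-HaloTag were seeded at 1×10^4 cells/well with NanoBRET 618 ligand overnight. BRET signal was converted to % inhibition of binding relative to max and blank wells, and IC50 came from curve fitting.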

The subject of data set [4] is KRAS-G12V mutant tumor cells SW620. Kind of data set: Cell Proliferation Inhibition Assay (SW620), Cell-titer GLO, 96 h. To be noted: Homo sapiens, SW-620, 96 h, SW620 cells, 96 h incubation, Cell-titer GLO; read-out: SW620(G12V). It counts as cell-based. In outline:
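SW620 cells (1×10^3/well, low-attachment) were exposed to compound from 10000 to 0.03 nM (0.5% DMSO) for 96 h at 37°C. Viability was read by Cell-titer GLO luminescence. Inhibition was calculated relative to DMSO and blank wells, and IC50 obtained by curve fitting.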

A short description of data set [5]: PK Study of Compounds in Rats. It counts as in vivo, Male SD rats. To be noted: mean; for AUC(0-t): read-out: AUC0-t; for Cmax: read-out: C0/Cmax. The method, then:
as §1, with “0.5” for “0.2”, “Male SD rats” for “Female ICR mice”

Data set [6] addresses T2, KRAS G12V-cRAF (Homo sapiens, UniProt P01116, G12V).
T2 construct: expressed in transfected cells
Kind of data set: Cellular KRAS G12V-cRAF Binding Inhibition Assay (NanoBRET, AD293 stable cells). It counts as cell-based. Conditions: 3 h incubation, read-out: NanoBRET KRAS G12V. In outline: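 Live AD293 stable cells, NanoLuc donor with HaloTag NanoBRET 618 ligand acceptor added overnight. Inhibition percent from luminescence relative to max signal and medium blank; IC50 from curve fitting.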

[7] abbreviates: PO 10 mg/kg vs IV 1 mg/kg (n=3).
Where [8] appears, read: female, ICR, mouse, whole blood, IV 1 mg/kg (n=3).
Where [9] appears, read: female, ICR, mouse, whole blood, PO 10 mg/kg (n=3).
The mark [10] stands for this setting: male, SD, rat, whole blood, IV 1 mg/kg (n=3).
Where [11] appears, read: male, SD, rat, whole blood, PO 10 mg/kg (n=3).

T2 sequence (P01116 1-188 isoform P01116-2 G12V): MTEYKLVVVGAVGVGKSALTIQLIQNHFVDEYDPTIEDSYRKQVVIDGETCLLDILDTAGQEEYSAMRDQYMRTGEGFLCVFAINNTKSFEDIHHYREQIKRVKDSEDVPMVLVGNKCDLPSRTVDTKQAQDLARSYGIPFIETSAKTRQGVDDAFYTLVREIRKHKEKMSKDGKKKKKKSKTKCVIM
T1 sequence (P01116 1-188 isoform P01116-2 G12D): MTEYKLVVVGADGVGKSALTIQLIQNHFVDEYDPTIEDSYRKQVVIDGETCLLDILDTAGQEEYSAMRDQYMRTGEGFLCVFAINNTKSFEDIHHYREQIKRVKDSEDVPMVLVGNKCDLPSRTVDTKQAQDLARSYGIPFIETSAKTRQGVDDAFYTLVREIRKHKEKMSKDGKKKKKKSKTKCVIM

As for `CC1OCCCn2c(c3c4cc(ccc42)-c2csc(n2)CC(NC(=O)C2C(C)C2C)C(=O)N2NC(C(=O)OCC(C)(C)C3)C3CC2C3)-c2cc(N3CCN(C4COC4)CC3)cnc21` [Example 198, (1r,2R,3S)-N-((1^5S,6^4S,4S,Z)-1^2-(4-(oxetan-3-yl)piperazin-1-yl)-1^5,10,10-trimethyl-5,7-dioxo-1^8 ,1^9-dihydro-1^5H,1^7H-8-oxa-6^2,6^3-diaza-1(13,15)-pyrido[3',2':7,8][1,5]oxazonino[5,6-a]indola-2(4 ,2)-thiazola-6(2,4)-bicyclo[3.1.1]heptanacycloundecaphane-4-yl)-2,3-dimethylcyclopropane-1-ca rboxamide], the F in data set [1] (setting [7]) turned out to be 54.0; in data set [5] (setting [7]), 32.4. In addition, the AUC(0-t) in data set [1] (setting [8]) was found to be 2450 ng·h/mL; in data set [1] (setting [9]), 13200 ng·h/mL; in data set [5] (setting [10]), 6940 ng·h/mL; in data set [5] (setting [11]), 22500 ng·h/mL. Also, the clearance in data set [1] (setting [8]) was 5.75 mL/min/kg; in data set [5] (setting [10]) it was 2.22 mL/min/kg. The half-life in data set [1] (setting [8]) is 8.9 h; in data set [5] (setting [10]) it was 7.22 h. Besides, the Cmax in data set [1] (setting [8]) was 462 ng/mL; in data set [1] (setting [9]), 1300 ng/mL; in data set [5] (setting [10]), 6060 ng/mL; in data set [5] (setting [11]) it was 2060 ng/mL. Also, the Vd was determined as 4.66 L/kg in data set [1] (female, ICR, mouse, whole blood, IV 1 mg/kg (n=3), read-out: Vss) and 1.08 L/kg in data set [5] (male, SD, rat, whole blood, IV 1 mg/kg (n=3), read-out: Vss). Besides, the Tmax in data set [1] (setting [9]) is 2 h; in data set [5] (male, SD, rat, whole blood, PO 10 mg/kg (n=3), read-out: Tmax), 3.33 h. Also, the IC50 came out at 0.37 nM in data set [2], 2 nM in data set [3], 0.09 nM in data set [4] and 8.4 nM in data set [6].
